Results published in article PMC7665192, “A natriuretic peptide from Arabidopsis thaliana (AtPNP-A) can modulate catalase 2 activity” (Scientific Reports, 2020).

Tests used:
[1] = test system: ERP/AP2, ethylene response factor; test: Yeast two-hybrid (Y2H) screen; type: binding, A. thaliana; details: bait AtPNP-A amino acids 26–130, prey At5g07580.1
Procedure: (§1) The Y2H screen using AtPNP-A as bait was carried out by Dualsystems Biotech AG (Zurich, Switzerland). The bait construct for the screening was made by subcloning the cDNA fragment encoding exported portion of AtPNP-A (amino acids 26 to 130) (Fig. 1a) into the pLexA-DIR vector (Dualsystems Biotech AG). The bait construct was transformed into the strain NMY32 (MATa his3Δ200 trp1-901 leu2-3,112 (lexAop)8-ADE2 LYS2::(lexAop)4-HIS3 URA3::(lexAop)8-lacZ GAL4) using standard procedures. Correct expression of the bait was verified by western blotting of cell extracts using a mouse monoclonal antibody directed against the LexA domain (Dualsystems Biotech AG). The absence of self-activation was verified by co-transformation of the bait together with a control prey and selection on minimal medium lacking tryptophan, leucine, and histidine (selective medium). For the Y2H screen, the bait was co-transformed together with a normalized A. thaliana universal P02403 cDNA library (Dualsystems Biotech AG) into NMY32. 3.1 × 10^6 transformants were screened, yielding 96 transformants that grew on selective medium. […] Library plasmids were isolated from positive clones. The identity of positive interactants was determined by sequencing. DNA sequences translated in all three reading frames and searching against the SwissProt database using the BLASTX algorithm (https://blast.ncbi.nlm.nih.gov).

[2] = test system: Basic-leucine zipper (bZIP) TF family protein; test: Yeast two-hybrid (Y2H) screen; type: binding, A. thaliana; details: bait AtPNP-A amino acids 26–130, prey At2g31370.1
Procedure: as §1

[3] = test system: ER, enhanced of rudimentary homologue, ATER; test: Yeast two-hybrid (Y2H) screen; type: binding, A. thaliana; details: bait AtPNP-A amino acids 26–130, prey At5g10810.1
Procedure: as §1

[4] = test system: HISN5B, histidine biosynthesis 5B; test: Yeast two-hybrid (Y2H) screen; type: binding, A. thaliana; details: bait AtPNP-A amino acids 26–130, prey At4g14910.1
Procedure: as §1

[5] = test system: FED A, ferredoxin 2; test: Yeast two-hybrid (Y2H) screen; type: binding, A. thaliana; details: bait AtPNP-A amino acids 26–130, prey At1g60950.1
Procedure: as §1

[6] = test system: COL1, constans-like 1; test: Yeast two-hybrid (Y2H) screen; type: binding, A. thaliana; details: bait AtPNP-A amino acids 26–130, prey At5g15850.1
Procedure: as §1

[7] = test system: SHA1, shoot apical meristem arrest 1; test: Yeast two-hybrid (Y2H) screen; type: binding, A. thaliana; details: bait AtPNP-A amino acids 26–130, prey At5g63780.1
Procedure: as §1

[8] = test system: Protein containing PAM2 motif; test: Yeast two-hybrid (Y2H) screen; type: binding, A. thaliana; details: bait AtPNP-A amino acids 26–130, prey At4g14270.1
Procedure: as §1

[9] = test system: ADH5, alcohol dehydrogenase 2; test: Yeast two-hybrid (Y2H) screen; type: binding, A. thaliana; details: bait AtPNP-A amino acids 26–130, prey At5g43940.1
Procedure: as §1

[10] = test system: PGR1, photosynthetic electron transfer C; test: Yeast two-hybrid (Y2H) screen; type: binding, A. thaliana; details: bait AtPNP-A amino acids 26–130, prey At4g03280.1
Procedure: as §1

[11] = test system: PLL4, poltergeist like 4; test: Yeast two-hybrid (Y2H) screen; type: binding, A. thaliana; details: bait AtPNP-A amino acids 26–130, prey At2g28890.1
Procedure: as §1

[12] = test system: ERF7, ethylene response factor 7; test: Yeast two-hybrid (Y2H) screen; type: binding, A. thaliana; details: bait AtPNP-A amino acids 26–130, prey At3g20310.1
Procedure: as §1

[13] = test system: MAC5S, MOS4-associated complex subunit 5C; test: Yeast two-hybrid (Y2H) screen; type: binding, A. thaliana; details: bait AtPNP-A amino acids 26–130, prey At5g07060.1
Procedure: as §1

[14] = test system: CLA, 1-deoxy-D-xylulose-5-phosphate synthase; test: Yeast two-hybrid (Y2H) screen; type: binding, A. thaliana; details: bait AtPNP-A amino acids 26–130, prey At4g15560.1
Procedure: as §1

[15] = test system: NUDX1, nudix hydrolase 1; test: Yeast two-hybrid (Y2H) screen; type: binding, A. thaliana; details: bait AtPNP-A amino acids 26–130, prey At1g68760.1
Procedure: as §1

[16] = test system: RCA, rubisco activase; test: Yeast two-hybrid (Y2H) screen; type: binding, A. thaliana; details: bait AtPNP-A amino acids 26–130, prey At2g39730.1
Procedure: as §1

[17] = test system: IGPD, imidazole glycerol-phosphate dehydratase; test: Yeast two-hybrid (Y2H) screen; type: binding, A. thaliana; details: bait AtPNP-A amino acids 26–130, prey At3g22425.1
Procedure: as §1

[18] = test system: RAP2.12, ethylene response factor; test: Yeast two-hybrid (Y2H) screen; type: binding, A. thaliana; details: bait AtPNP-A amino acids 26–130, prey At1g53910.1
Procedure: as §1

[19] = test system: rCAT2; test: SPR of CAT2 and AtPNP-A recombinant proteins, CM5 chip, both configurations; type: binding, Arabidopsis thaliana; details: amine coupling, 20 °C
Procedure: N-terminally 6xHis-tagged AtPNP-A and CAT2 proteins were expressed in BL21 (DE3) One Shot E. coli cells (Life Technologies), purified by affinity chromatography with Ni–NTA beads (Qiagen) and HisTrap HP column (GE Healthcare Lifesciences) as described in[21]. The purity of preparations was verified on 12.5% SDS-PAGE, stained with Coomassie Brilliant Blue (Bio-Rad). Protein identities were confirmed in MS analysis, and protein concentration was determined according to the method of Bradford using BSA as a standard.
SPR experiments were performed at 20 °C on Biacore T100 instrument operated using Biacore T100 control software (version 2.0.2, GE Healthcare Lifesciences) using Series S CM5 or NTA sensor chips as described in[21]. Kinetic analyses were performed at the flow of 100 μL min^−1 with pAtPNP-A (at 3.78 μM and consecutive twofold dilutions; 11 injections included) employed as a ligand and bovine liver CAT (C-40; Sigma) used as an analyte and immobilized on the active surface of the Series S CM5 sensor chip with amine coupling kit, while the surface regeneration was done with solution of glycine, pH 2.0, and the final sensorgram was generated with Scrubber (BioLogic Software Pty Ltd).
Supplementary Figure S3. In vitro association of AtPNP-A and CAT2 recombinant proteins.
(a) Recombinant protein preparations used in SPR analyses. […]

“AtPNP-A: An A. thaliana PNP, termed AtPNP-A (At2g18660; Q9ZV52)” was tested, and the Strength of binding [1] was “Strong”, the Strength of binding [2] was “Weak” and the Strength of binding [3] was “Weak”. For the same substance, the Strength of binding [4] was “Moderate”, the Strength of binding [5] was “Weak” and the Strength of binding [6] was “Weak”. The Strength of binding [7] was “Strong”, the Strength of binding [8] was “Moderate” and the Strength of binding [9] was “Weak”. The Strength of binding [10] was “Weak”, the Strength of binding [11] was “Strong” and the Strength of binding [12] was “Strong”. The Strength of binding [13] was “Strong”, the Strength of binding [14] was “Weak” and the Strength of binding [15] was “Moderate”. For the same substance, the Strength of binding [16] was “Strong”, the Strength of binding [17] was “Strong” and the Strength of binding [18] was “Strong”. For the same substance, the “SPR binding of recombinant AtPNP-A to CAT2” value [19] was “specific AtPNP-A and CAT2 interaction in vitro”.
